Among the data in patent US10688082B2, “Aminopyrazine compounds with A2A antagonist properties” (Merck Sharp & Dohme Corp., priority 2015, dated 2020) are Ki values, retold here.

The assay concerns the target T1, human A2a receptor (Homo sapiens, UniProt P29274).
T1 construct: purchased Perkin-Elmer RBHA2AM400UA; host or cells: HEK293 cells (membranes)
The assay is described as follows: Competition binding assay using Scintillation Proximity technology (A2a activity). Here is the method:
Binding affinities of compounds of the invention for the human A2a receptor were determined in a competition binding assay using Scintillation Proximity technology. Thus, […] from HEK293 cells expressing the human A2a receptor were incubated with a compound of the invention at concentrations ranging from 3000 nM to 0.15 nM in a reaction mixture containing also 0.5 nM of a tritiated form of 5-amino-7-[2-phenethyl]-2-(furan-2-yl)-7H-pyrazolo[4,3-e][1,2,4]triazolo[1,5-c]pyrimidine (the tritiated compound) and 100 μg of wheat germ agglutin-coated yttrium silicate SPA beads for one hour at room temperature with agitation. The beads were then allowed to settle to the bottom of the wells for 1 hr, after which the membrane-associated radioactivity was determined by scintillation counting in a TopCount microplate reader. Ki values were determined using the Cheng-Prusoff equation.
HEK293 cells expressing the human, rat, dog or monkey adenosine 2a receptor (Purchased from Perkin-Elmer # RBHA2AM400UA).
The Tritiated compound was prepared according to published methods.
Wheat germ agglutinin-coated yttrium silicate SPA beads (GE Healthcare # RPNQ0023). Dilute to 25 mg/ml in assay buffer.
Assay Buffer was prepared using Dulbecco's calcium and magnesium free phosphate buffered saline+10 mM MgCl2
Adenosine deaminase from calf intestine, 10 mg/2 ml (Roche #10 102 105 001).
A2a antagonist standard (9-chloro-1-(2-furanyl)-[1,2,4]triazolo1,5-c]quinazolin-5-amine from Tocris Bioscience)
Make eight 1:3 serial dilutions in 100% DMSO from a 3 mM compound stock
Transfer 50 nl of compound into a 384-well OptiPlate (Perkin Elmer).
Typically, final concentrations of compound used in the assay ranged from 3000 nM to 0.152 nM.
Dilute a solution of the Tritiated compound to 1.25 nM in assay buffer. This is a 2.5× solution. The final concentration in the assay is 0.5 nM. Calculate the concentration by counting two 5 μl aliquots.
Use 0.25 ug of membrane/well. Dilute membranes to 9.7 μg/ml in assay buffer. Treat with 20 ug/ml adenosine deaminase (ADA) for 15 minutes at room temperature to degrade endogenous adenosine.
Use 100 μg/well wheat germ agglutinin-coated yttrium silicate SPA beads.
Mix ADA-treated membranes and SPA beads together for 30 min prior to assay.
To the Perkin-Elmer Optiplate-384 containing the compound titration add 20 μl of 2.5× solution of the Tritiated compound and 30 μl of the membrane-bead mixture. Incubate for one hour at room temperature with agitation.
Include total binding (assay buffer+1% DMSO) and non-specific binding (CGS15943, 1 μM) wells.
Allow the beads to settle for one hour.
A curve fitting program (i.e., Prism, Activity Base, Chemcart) is used to determine the EC50. The Ki value is calculated using the Cheng-Prusoff equation. K i=EC50/(1+(radioligand concentration/Kd))
A general note: In a scintillation proximity assay essentially only radioactivity close to the scintillant gives light.

The mark [1] stands for this setting: membranes from HEK293 cells expressing the human A2a receptor, 0.5 nM tritiated ligand, Cheng-Prusoff.

A word on the Ki: it is the dissociation constant of the complex between target and ligand, obtained from inhibition or displacement. Higher therefore signals weaker binding.

T1 sequence (P29274 whole entry): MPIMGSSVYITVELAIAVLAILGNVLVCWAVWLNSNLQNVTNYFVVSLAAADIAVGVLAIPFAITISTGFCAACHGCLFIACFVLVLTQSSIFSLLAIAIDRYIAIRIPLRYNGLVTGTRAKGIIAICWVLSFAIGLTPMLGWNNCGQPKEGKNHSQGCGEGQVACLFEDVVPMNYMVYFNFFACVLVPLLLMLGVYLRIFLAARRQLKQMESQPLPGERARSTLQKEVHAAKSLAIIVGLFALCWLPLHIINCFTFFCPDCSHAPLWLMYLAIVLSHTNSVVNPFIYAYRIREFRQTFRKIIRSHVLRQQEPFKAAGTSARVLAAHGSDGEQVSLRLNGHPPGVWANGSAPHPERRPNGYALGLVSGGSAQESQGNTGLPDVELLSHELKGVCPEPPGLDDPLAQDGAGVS

For `COc1cccc2c1nc(N)n1nc(-c3cnco3)cc21` [Ex-2, 7-methoxy-2-(oxazol-5-yl)pyrazolo[1,5-c]quinazolin-5-amine], under setting [1], the inhibition constant Ki stood at 20 nM.
In turn, `COCCOc1ccc(N2CCN(CCOc3cccc4c3nc(N)n3nc(-c5ccco5)cc43)CC2)cc1` [Ex-3, 2-(furan-2-yl)-7-(2-(4-(4-(2-methoxyethoxy)phenyl)piperazin-1-yl)ethoxy)pyrazolo[1,5-c]quinazolin-5-amine] registered a Ki under setting [1] of 677 nM.
`COc1cccc2c1nc(N)n1nc(Cc3ccccc3)cc21` [Ex-4, 2-benzyl-7-methoxypyrazolo[1,5-c]quinazolin-5-amine] gave an inhibition constant Ki (same protocol) of 9 nM.
As to `COc1cccc2c1nc(N)n1nc(Cc3ccc(F)cc3)cc21` [Ex-5, 2-(4-fluorobenzyl)-7-methoxypyrazolo[1,5-c]quinazolin-5-amine], the affinity under setting [1] corresponds to a Ki of 12 nM.
`COc1cccc2c1nc(N)n1nc(Cc3ccc(F)cc3F)cc21` [Ex-6, 2-(2,4-difluorobenzyl)-7-methoxypyrazolo[1,5-c]quinazolin-5-amine]: the Ki under setting [1] stood at 10 nM.
As to `COc1cccc2c1nc(N)n1nc(Cc3cccc4ccccc34)cc21` [Ex-7, 7-methoxy-2-(naphthalen-1-ylmethyl)pyrazolo[1,5-c]quinazolin-5-amine], the Ki under setting [1] is 16 nM.
Under setting [1], `COc1cccc2c1nc(N)n1nc(Cc3ccc(N4CCCCC4)cc3)cc21` [Ex-8, 7-methoxy-2-(4-(piperidin-1-yl)benzyl)pyrazolo[1,5-c]quinazolin-5-amine] gave a Ki of 136 nM. Against the preceding compound, the Ki is about 8.5-fold higher.
As for `COc1cccc2c1nc(N)n1nc(Cc3cccc4cccnc34)cc21` [Ex-9, 7-methoxy-2-(quinolin-8-ylmethyl)pyrazolo[1,5-c]quinazolin-5-amine], under setting [1], affinity was put at a Ki of 3 nM.
On the same count and under the same terms, next, `COc1cccc2c1nc(N)n1nc(Cc3cncnc3)cc21` [Ex-10, 7-methoxy-2-(pyrimidin-5-ylmethyl)pyrazolo[1,5-c]quinazolin-5-amine]: 36 nM; `COc1cccc2c1nc(N)n1nc(Cc3ccc(N(C)C)cc3)cc21` [Ex-11, 2-(4-(dimethylamino)benzyl)-7-methoxypyrazolo[1,5-c]quinazolin-5-amine]: 61 nM.
As for `COc1cccc2c1nc(N)n1nc(Cc3ccc(N4CCN(C)CC4)cc3)cc21` [Ex-12, 7-methoxy-2-(4-(4-methylpiperazin-1-yl)benzyl)pyrazolo[1,5-c]quinazolin-5-amine], the Ki under setting [1] was determined as 316 nM.
In the case of `COc1cccc2c1nc(N)n1nc(Cc3csc(N4CCN(C)CC4)n3)cc21` [Ex-13, 7-methoxy-2-((2-(4-methylpiperazin-1-yl)thiazol-4-yl)methyl)pyrazolo[1,5-c]quinazolin-5-amine], under setting [1], the inhibition constant (Ki) turned out to be 373 nM.
Same read-out and setting: the value for `COc1cccc2c1nc(N)n1nc(Cc3ccnc4ccccc34)cc21` [Ex-14, 7-methoxy-2-(quinolin-4-ylmethyl)pyrazolo[1,5-c]quinazolin-5-amine] was 2 nM; that for `COc1cccc2c1nc(N)n1nc(Cc3cccc4ncccc34)cc21` [Ex-15, 7-methoxy-2-(quinolin-5-ylmethyl)pyrazolo[1,5-c]quinazolin-5-amine] was 85 nM.
For the compound `COc1cccc2c1nc(N)n1nc(Cc3ccc4[nH]ncc4c3)cc21` [Ex-16, 2-((1H-indazol-5-yl)methyl)-7-methoxypyrazolo[1,5-c]quinazolin-5-amine], affinity under setting [1] was put at a Ki of 131 nM.
For the compound `COc1cccc2c1nc(N)n1nc(Cc3ccccc3C(F)(F)F)cc21` [Ex-17, 7-methoxy-2-(2-(trifluoromethyl)benzyl)pyrazolo[1,5-c]quinazolin-5-amine], the Ki under setting [1] came out at 17 nM.
For `COc1cccc2c1nc(N)n1nc(Cc3ccccc3N3CCOCC3)cc21` [Ex-18, 7-methoxy-2-(2-morpholinobenzyl)pyrazolo[1,5-c]quinazolin-5-amine], under setting [1], the Ki turned out to be 3 nM.
On the same count and under the same terms, next, `COc1cccc2c1nc(N)n1nc(Cc3ccccc3N3CCNCC3)cc21` [Ex-19, 7-methoxy-2-(2-(piperazin-1-yl)benzyl)pyrazolo[1,5-c]quinazolin-5-amine]: 67 nM; `COc1cccc2c1nc(N)n1nc(Cc3cccnc3N3CCOCC3)cc21` [Ex-20, 7-methoxy-2-((2-morpholinopyridin-3-yl)methyl)pyrazolo[1,5-c]quinazolin-5-amine]: 15 nM.
With `COc1cccc2c1nc(N)n1nc(Cc3ccccc3CN3CCOCC3)cc21` [Ex-21, 7-methoxy-2-(2-(morpholinomethyl)benzyl)pyrazolo[1,5-c]quinazolin-5-amine], the Ki under setting [1] amounted to 51 nM.
Take `COc1cccc2c1nc(N)n1nc(Cc3ccc(N4CCOCC4)cc3)cc21` [Ex-22, 7-methoxy-2-(4-morpholinobenzyl)pyrazolo[1,5-c]quinazolin-5-amine]: affinity under setting [1] was put at a Ki of 128 nM. Against the preceding compound, the Ki is about 2.5-fold higher.
Consider `COc1cccc2c1nc(N)n1nc(Cc3cccc(N4CCOCC4)c3)cc21` [Ex-23, 7-methoxy-2-(3-morpholinobenzyl)pyrazolo[1,5-c]quinazolin-5-amine], for which, under setting [1], affinity was put at a Ki of 26 nM.
Consider `COc1cccc2c1nc(N)n1nc(Cc3ccc(N4CCN(C(=O)OC(C)(C)C)CC4)cc3)cc21` [Ex-24, tert-butyl 4-(4-((5-amino-7-methoxypyrazolo[1,5-c]quinazolin-2-yl)methyl)phenyl)piperazine-1-carboxylate], for which the Ki under setting [1] was determined as 224 nM.
Consider `COc1cccc2c1nc(N)n1nc(Cc3ccc(N4CCNCC4)cc3)cc21` [Ex-25, 7-methoxy-2-(4-(piperazin-1-yl)benzyl)pyrazolo[1,5-c]quinazolin-5-amine], for which the Ki under setting [1] is 333 nM. The Ki values of the last two compounds are within 1.5-fold of each other.
As for `CCN1CCN(c2ccccc2Cc2cc3c4cccc(OC)c4nc(N)n3n2)CC1` [Ex-26, 2-(2-(4-ethylpiperazin-1-yl)benzyl)-7-methoxypyrazolo[1,5-c]quinazolin-5-amine], the Ki under setting [1] was 120 nM.
`COc1cccc2c1nc(N)n1nc(Cc3ccccc3CN3CCC(C)(O)CC3)cc21` [Ex-27, 1-(2-((5-amino-7-methoxypyrazolo[1,5-c]quinazolin-2-yl)methyl)benzyl)-4-methylpiperidin-4-ol] returned a Ki under setting [1] of 18 nM.
Compound `COc1cccc2c1nc(N)n1nc(Cc3ccccc3CN3CC(O)C3)cc21` [Ex-28, 1-(2-((5-amino-7-methoxypyrazolo[1,5-c]quinazolin-2-yl)methyl)benzyl)azetidin-3-ol] showed an inhibition constant Ki under setting [1] of 9 nM.
On the same count and under the same terms, the value for `COc1cccc2c1nc(N)n1nc(Cc3ccccc3CN3CCCC3)cc21` [Ex-29, 7-methoxy-2-(2-(pyrrolidin-1-ylmethyl)benzyl)pyrazolo[1,5-c]quinazolin-5-amine] was 17 nM.
`COc1cccc2c1nc(N)n1nc(Cc3ccccc3F)cc21` [Ex-30, 2-(2-fluorobenzyl)-7-methoxypyrazolo[1,5-c]quinazolin-5-amine]: the Ki under setting [1] was 1 nM.
Under setting [1], `COc1cccc2c1nc(N)n1nc(Cc3cccc(F)c3)cc21` [Ex-31, 2-(3-fluorobenzyl)-7-methoxypyrazolo[1,5-c]quinazolin-5-amine] showed an inhibitory constant (Ki) of 2 nM. Against the preceding compound, the Ki is about 2-fold higher.
`COc1ccccc1Cc1cc2c3cccc(OC)c3nc(N)n2n1` [Ex-32, 7-methoxy-2-(2-methoxybenzyl)pyrazolo[1,5-c]quinazolin-5-amine]: affinity under setting [1] was put at a Ki of 1 nM.
Under setting [1], `COc1ccc(Cc2cc3c4cccc(OC)c4nc(N)n3n2)cc1` [Ex-33, 7-methoxy-2-(4-methoxybenzyl)pyrazolo[1,5-c]quinazolin-5-amine] displayed a Ki of 32 nM.
Regarding `COc1cccc(Cc2cc3c4cccc(OC)c4nc(N)n3n2)c1` [Ex-34, 7-methoxy-2-(3-methoxybenzyl)pyrazolo[1,5-c]quinazolin-5-amine], the Ki under setting [1] is 7 nM.
